The experiment concerns the target human RIP1 kinase domain (2-375) (Homo sapiens (Human), UniProt Q13546). Nature of the experiment: RIP1 kinase inhibition biochemical assay (Transcreener ADP, fluorescence polarization). The conditions noted are these: Ki app from tight-binding Morrison equation; 50 nM enzyme, 50 uM ATP, 2 hours incubation. The method, then: RIP1 Kinase Inhibition Assays (Biochemical Assay)
The compounds of the present invention were tested for their capacity to inhibit RIP1K activity as described below.
The ability of the receptor interacting protein kinase (RIPK1) to catalyze the hydrolysis of adenosine-5′-triphosphate (ATP) is monitored using the Transcreener ADP (adenosine-5′-diphosphate) assay (BellBrook Labs). Purified human RIP1 kinase domain (2-375) (50 nM) derived from a baculovirus-infected insect cell expression system is incubated with test compounds for 2 hours in 50 mM Hepes buffer (pH 7.5) containing 30 mM MgCl2, 1 mM dithiothreitol, 50 uM ATP, 0.002% Brij-35, and 0.5% dimethyl sulfoxide (DMSO). Reactions are quenched by the addition of 1× Bell Brooks Stop buffer B (20 mM Hepes (ph7.5), 40 mM ethylenediaminetetraacetic acid and 0.02% Brij-35) containing an additional 12 mM EDTA and 55 ug/mL ADP2 antibody and 4 nM ADP-AlexaFluor® 633 tracer. The tracer bound to the antibody is displaced by the ADP generated during the RIP1K reaction, which causes a decrease in fluorescence polarization that is measured by laser excitation at 633 nm with a FP microplate reader M1000. Fractional activity was plotted against test article concentration. Using Genedata Screener software (Genedata; Basel, Switzerland), the data were fit to the tight-binding apparent inhibition constant (Ki^app) Morrison equation [Williams, J. W. and Morrison, J. F. (1979) The kinetics of reversible tight-binding inhibition. Methods Enzymol 63: 437-67]. The following equation was used to calculate fractional activity and Ki^app:
[formula] where [E]T and [I]T are the total concentrations of active enzyme and test article, respectively.
Exemplary compounds of the present invention are provided in Table 1 along with their physiochemical characterization and in vitro RIP1 kinase inhibitory activity data. “Method” in the first column of each table refers to the synthetic method(s) used to prepare each compound as shown in the Examples above. In certain examples, chiral column retention times (min) are provided for certain stereoisomers. Unless otherwise specified, the stereochemistry shown in each structure represents relative configuration of a single stereoisomer, and absolute configuration (i.e., “R” and/or “S”) is arbitrarily assigned. In some embodiments, where the Method is described to include the separation of stereoisomers, a single stereoisomer of a compound of Table 1 is provided.
(Polarisation of emitted light reports the rotation of a fluorescent probe.)

The structures appear in SMILES notation. Where only a bound is given, the exact number is not on record here.

human RIP1 kinase domain (2-375), sequence (Q13546 2-375): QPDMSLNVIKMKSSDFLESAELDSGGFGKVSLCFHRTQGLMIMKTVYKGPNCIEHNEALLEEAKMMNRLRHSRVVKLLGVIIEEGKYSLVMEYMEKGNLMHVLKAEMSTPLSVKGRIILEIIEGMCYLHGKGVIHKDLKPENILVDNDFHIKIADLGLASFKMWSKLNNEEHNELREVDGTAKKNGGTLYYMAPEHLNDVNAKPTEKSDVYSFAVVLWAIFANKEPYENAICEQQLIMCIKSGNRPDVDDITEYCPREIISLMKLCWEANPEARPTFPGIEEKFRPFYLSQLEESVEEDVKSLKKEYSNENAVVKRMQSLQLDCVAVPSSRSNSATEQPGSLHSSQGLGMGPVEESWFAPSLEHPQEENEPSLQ

Consider `C[C@H]1C[C@@H]1S(=O)(=O)c1nc2n(n1)[C@H](c1ccccc1)C[C@@H]2F` (mixture of isomers) [Example 162, (5S,7S)-7-fluoro-5-phenyl-2-[rac-(1S,2S)-2-methylcyclopropyl]sulfonyl-6,7-dihydro-5H-pyrrolo[1,2-b][1,2,4]triazole], for which the Ki amounted to 14 nM.

`O=S(=O)(c1nc2n(n1)[C@H](c1ccccc1)C[C@@H]2F)[C@H]1C[C@@H]1C(F)(F)F` (mixture of isomers) [Example 163, (5S,7S)-7-fluoro-5-phenyl-2-[rac-(1S,2R)-2-(trifluoromethyl)cyclopropyl]sulfonyl-6,7-dihydro-5H-pyrrolo[1,2-b][1,2,4]triazole] displayed a Ki of 7 nM.

In turn, `CCS(=O)(=O)c1nc2n(n1)C(c1ccccc1)CC2` (racemic) [Example 2, 2-ethylsulfonyl-5-phenyl-6,7-dihydro-5H-pyrrolo[1,2-b][1,2,4]triazole] came in with a Ki of 864 nM.

`O=S(=O)(c1nc2n(n1)C(c1ccccc1)CC2)C(F)(F)c1ccccc1` (racemic) [Example 4, 2-[difluoro(phenyl)methyl]sulfonyl-5-phenyl-6,7-dihydro-5H-pyrrolo[1,2-b][1,2,4]triazole]: the Ki stood at 152 nM.

`O=S(=O)(c1nc2n(n1)C(c1ccccc1)CC2)C(F)F` (racemic) [Example 6] came in with a Ki of 101 nM.

Take `CS(=O)(=O)c1nc2n(n1)C(c1ccccc1)CC2` (racemic) [Example 9]: the Ki was 1040 nM.

`[O-][S+](c1nc2n(n1)[C@H](c1ccccc1)C[C@@H]2F)C(F)F` (mixture of isomers) [Example 13, Rac-(5S,7S)-2-((difluoromethyl)sulfinyl)-7-fluoro-5-phenyl-6,7-dihydro-5H-pyrrolo[1,2-b][1,2,4]triazole] registered a Ki of 42 nM.

Turning to `O=S(=O)(c1nc2n(n1)[C@H](c1ccccc1)C[C@@H]2F)C1CC1(F)F` (mixture of isomers) [Example 118, (5S,7S)-2-((2,2-difluorocyclopropyl)sulfonyl)-7-fluoro-5-phenyl-6,7-dihydro-5H-pyrrolo[1,2-b][1,2,4]triazole], the Ki was determined as 4 nM.

On to `O=S(=O)(c1nc2n(n1)C(c1cc(F)cc(F)c1)CC2)C(F)F` (racemic) [Example 175, 2-(Difluoromethylsulfonyl)-5-(3,5-difluorophenyl)-6,7-dihydro-5H-pyrrolo[1,2-b][1,2,4]triazole], for which the Ki was found to be 220 nM.

Regarding `O=S(=O)(c1nc2n(n1)CCC2c1ccccc1)C(F)F` (racemic) [Example 220, 2-(Difluoromethylsulfonyl)-7-phenyl-6,7-dihydro-5H-pyrrolo[1,2-b][1,2,4]triazole], the Ki is 100 nM.

For `CS(=O)(=O)c1nc2n(n1)[C@H](c1ccccc1F)CC2` (single isomer, unassigned) [Example 7], the Ki came out at 250 nM.

As for `CCS(=O)(=O)c1nc2n(n1)[C@H](c1ccccc1F)CC2` (single isomer, unassigned) [Example 8], the Ki is 290 nM.

In turn, `O=S(=O)(c1nc2n(n1)[C@@H](c1ccccc1)C[C@H]2F)C1CC1` (single isomer, unassigned) [Example 14] returned a Ki of 980 nM.

Take `O=S(=O)(Cc1ccccc1)c1nc2n(n1)[C@H](c1ccccc1)C[C@@H]2F` (single isomer, unassigned) [Example 19]: the Ki amounted to 15 nM.

For `O=S(=O)(c1nc2n(n1)[C@H](c1ccccc1)C[C@@H]2F)C(F)F` (single isomer, unassigned) [Example 23], the Ki amounted to 5 nM.

For `CC(C)(C)S(=O)(=O)c1nc2n(n1)[C@H](c1ccccc1)C[C@@H]2F` (single isomer, unassigned) [Example 25], the Ki was found to be 32 nM.

On to `O=S(=O)(c1ccccc1)c1nc2n(n1)[C@H](c1ccccc1)C[C@@H]2F` (single isomer, unassigned) [Example 26], for which the Ki is 3200 nM.

The molecule `O=S(=O)(c1nc2n(n1)[C@H](c1ccccc1Cl)C[C@@H]2F)C1CC1` (single isomer, unassigned) [Example 32] gave a Ki of 3 nM.

`O=S(=O)(c1nc2n(n1)[C@H](c1ccc(F)cc1)C[C@@H]2F)C1CC1` (single isomer, unassigned) [Example 34] registered a Ki of 10 nM.

On to `O=S(=O)(c1nc2n(n1)[C@H](c1c(F)cccc1F)C[C@@H]2F)C1CC1` (single isomer, unassigned) [Example 35], for which the Ki amounted to 5 nM.

Take `O=S(=O)(c1nc2n(n1)[C@@H](c1cccc(F)c1F)C[C@H]2F)C1CC1` (single isomer, unassigned) [Example 36]: the Ki turned out to be 880 nM.

In the case of `O=S(=O)(c1nc2n(n1)[C@H](c1cc(F)ccc1F)C[C@@H]2F)C1CC1` (single isomer, unassigned) [Example 37], the Ki turned out to be 6 nM.

Turning to `O=S(=O)(c1nc2n(n1)[C@H](c1c(F)ccc(F)c1F)C[C@@H]2F)C1CC1` (single isomer, unassigned) [Example 38], the Ki came to 10 nM.

As for `O=S(=O)(c1nc2n(n1)[C@H](c1cc(F)cc(F)c1F)C[C@@H]2F)C1CC1` (single isomer, unassigned) [Example 39], the Ki came out at 6 nM.

`O=S(=O)(c1nc2n(n1)[C@H](c1cccc(F)c1F)C[C@@H]2F)C1CC1` (single isomer, unassigned) [Example 40]: the Ki was 5 nM.

Turning to `O=S(=O)(c1nc2n(n1)[C@H](c1cc(F)cc(F)c1)C[C@@H]2F)C1CC1` (single isomer, unassigned) [Example 42], the Ki is < 5 nM.

`O=S(=O)(c1nc2n(n1)[C@H](c1ccc(F)c(F)c1)C[C@@H]2F)C1CC1` (single isomer, unassigned) [Example 44] registered a Ki of 21 nM.

As to `O=S(=O)(c1nc2n(n1)[C@H](c1cccc(F)c1Cl)C[C@@H]2F)C1CC1` (single isomer, unassigned) [Example 45], the Ki was < 5 nM.

The molecule `O=S(=O)(c1nc2n(n1)[C@H](c1cccc(Cl)c1F)C[C@@H]2F)C1CC1` (single isomer, unassigned) [Example 46] showed a Ki of 20 nM.

For the molecule `O=S(=O)(c1nc2n(n1)[C@H](c1cc(Cl)ccc1F)C[C@@H]2F)C1CC1` (single isomer, unassigned) [Example 47], the Ki stood at 67 nM.

Regarding `O=S(=O)(c1nc2n(n1)[C@H](c1cccc(F)c1)C[C@@H]2F)C1CC1` (single isomer, unassigned) [Example 48], the Ki was < 5 nM.

`O=S(=O)(c1nc2n(n1)[C@H](c1ccccc1)C[C@@H]2F)C1CC(F)(F)C1` (single isomer, unassigned) [Example 50] registered a Ki of 17 nM.

Take `[O-][S@@+](c1nc2n(n1)[C@H](c1ccccc1F)C[C@@H]2F)C(F)F` (single isomer, unassigned) [Example 51]: the Ki was 140 nM.

`[O-][S@+](c1nc2n(n1)[C@H](c1ccccc1F)C[C@@H]2F)C(F)F` (single isomer, unassigned) [Example 52] returned a Ki of 3 nM.

As to `O=S(=O)(c1nc2n(n1)[C@H](c1ccccc1F)C[C@@H]2F)C(F)F` (single isomer, unassigned) [Example 53], the Ki came out at 13 nM.

Consider `O=S(=O)(c1nc2n(n1)[C@H](c1ccc(F)cc1)C[C@@H]2F)C(F)F` (single isomer, unassigned) [Example 56], for which the Ki amounted to 55 nM.

`O=S(=O)(c1nc2n(n1)[C@H](c1c(F)cccc1F)C[C@@H]2F)C(F)F` (single isomer, unassigned) [Example 58] gave a Ki of 34 nM.

For the molecule `O=S(=O)(c1nc2n(n1)[C@H](c1c(F)ccc(F)c1F)C[C@@H]2F)C(F)F` (single isomer, unassigned) [Example 59], the Ki amounted to 7 nM.

On to `O=S(=O)(c1nc2n(n1)[C@H](c1cc(F)cc(F)c1F)C[C@@H]2F)C(F)F` (single isomer, unassigned) [Example 60], for which the Ki worked out at 7 nM.

With `O=S(=O)(c1nc2n(n1)[C@H](c1cccc(Cl)c1)C[C@@H]2F)C(F)F` (single isomer, unassigned) [Example 61], the Ki came out at 39 nM.

The molecule `N#Cc1ccccc1[C@@H]1C[C@H](F)c2nc(S(=O)(=O)C(F)F)nn21` (single isomer, unassigned) [Example 62] displayed a Ki of 266 nM.

As for `O=S(=O)(c1nc2n(n1)[C@H](c1ccc(F)c(F)c1)C[C@@H]2F)C(F)F` (single isomer, unassigned) [Example 63], the Ki amounted to 34 nM.

The molecule `O=S(=O)(c1nc2n(n1)[C@H](c1cccc(Cl)c1F)C[C@@H]2F)C(F)F` (single isomer, unassigned) [Example 65] gave a Ki of 18 nM.

The molecule `O=S(=O)(c1nc2n(n1)[C@H](c1cc(F)ccc1F)C[C@@H]2F)C(F)F` (single isomer, unassigned) [Example 67] gave a Ki of 5 nM.

Source of the values: patent US11072617B2, “Bicyclic sulfones and sulfoxides and methods of use thereof” (Genentech, Inc., priority 2017, dated 2021).
